Results from patent US20250163057A1, “DCN-1 MODULATING COMPOUNDS AND METHODS OF USE THEREOF” (Cellarity, Inc., priority 2023, published 2025).
Where two headings read alike, the source gives them in different places.

What was measured:
[1] = target: DCN1 protein (Homo sapiens (Human), UniProt Q96GG9); experiment: Intact Protein MS Analysis with the RapidFire-TOF System (covalent adduct formation); type: binding; conditions: MS Emax; 400 nM DCN1, 3 hours at room temperature
Description: An MS assay was performed to evaluate the ability of the compounds to covalently modify DCN-1.
DCN1 protein, His-TEV-DCN1, were expressed in E. Coli. The His-tagged protein was first purified with an Ni-NTA column. The His-tag was cleaved using His-tag TEV protease and the His-tags were removed using a second Ni-NTA column. Protein purity was verified with SDS-PAGE and intact MS. DCN1 was dissolved in a buffer containing 25 mM Tris-HCl, 200 mM NaCl, and 1 mM DTT at 400 nM. 11 concentrations of compounds were added to the DCN1 solution and incubated at room temperature for 3 hours, unless otherwise specified. The reaction plates were quenched by adding 0.2% formic acid. […] The cartridge was re-equilibrated with loading buffer for 1 second before collection of the next sample. The Q-TOF was operated in TOF-only positive ionization mode set to the following parameters: Gas Temp=350 C, Drying Gas=7 l/min, Nebulizer=50 psi, Sheath Gas Temp=400 C, Sheath Gas Flow=12 l/min, Vcap=4000 V, Nozzle Voltage=1000 V, Fragmentor=125 V, Skimmer=65 V and Oct 1 RF Vpp=750V. Raw MS data files were deconvoluted and analyzed using the Agilent MassHunter Bioconfirm software package to identify both parent protein and expected compound adduct mass signatures.

[2] = test system: Cullin-3 (CUL3) neddylation; experiment: AlphaLISA assay for Cullin-3 (CUL3) neddylation in TF 1 cells; type: cell-based; conditions: 3 hours treatment
Procedure, shortened: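 Neddylated CUL3 was quantified by AlphaLISA in lysates of TF 1 cells exposed for 3 h to test compound in IMDM without supplements. Percent inhibition set between vehicle and 1 μM DI-1548 positive control; IC50 derived by Hill-equation fitting of dose-response curves.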

[3] = target: DCN1 (DCUND1) protein PONY domain (Homo sapiens (Human), UniProt Q96GG9); experiment: TR-FRET assay, DCN1 binding with FAM-labeled probe
DCN1 (DCUND1) protein PONY domain, sequence (Q96GG9 60-248): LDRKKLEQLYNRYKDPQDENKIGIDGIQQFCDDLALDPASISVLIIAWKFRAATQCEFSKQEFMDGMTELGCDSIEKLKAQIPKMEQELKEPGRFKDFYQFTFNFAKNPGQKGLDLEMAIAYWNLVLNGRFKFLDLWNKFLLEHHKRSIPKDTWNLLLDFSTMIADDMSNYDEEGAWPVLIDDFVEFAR
Procedure, shortened: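 Tb-DCN1 PONY domain (E. coli, biotin/streptavidin-Tb); FAM-labelled non-covalent inhibitor probe; TritonX buffer, 200 mM NaCl; 5 nM DCN1 + 20 nM probe or 0.31 nM DCN1 + 900 nM total probe; 0.1% DMSO; TR-FRET read 1, 5, 24 hrs.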

[4] = 24 hr after treatment with compound, read-out: TR FRET IC50 24 hr
[5] = TR FRET IC50 1 hr (nM), 1 hr after treatment with compound
[6] = read-out: TR FRET IC50 1 hr, 1 hr after treatment with compound

DCN1 protein, sequence (Q96GG9 whole entry): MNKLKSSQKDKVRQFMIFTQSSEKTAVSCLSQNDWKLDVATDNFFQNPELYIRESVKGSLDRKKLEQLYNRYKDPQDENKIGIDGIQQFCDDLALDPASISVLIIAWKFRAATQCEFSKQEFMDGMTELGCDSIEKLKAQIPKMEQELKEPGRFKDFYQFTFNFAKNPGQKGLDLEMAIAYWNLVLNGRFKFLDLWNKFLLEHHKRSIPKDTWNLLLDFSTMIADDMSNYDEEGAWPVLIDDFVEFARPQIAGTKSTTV

Compound | % Adduct Formation [1] | IC50 ([2]; Homo sapiens, TF-1, 3 h) [µM] | IC50 [3, 4] [nM] | IC50 [3, 5] [nM] | IC50 [2] [µM] | IC50 [3, 6] [nM] | IC50 ([2]; Homo sapiens) [µM]
CCN1C(=O)[C@@H](NC(=O)c2cccc(C(F)(F)F)c2)[C@@H](c2ccc(F)cc2)c2c(NC(=O)COc3c(F)c(F)cc(F)c3F)nn(-c3ccccc3)c21 (racemic) [Compound I-176] | + (MS Emax % adduct formation greater than or equal to 0.0 and less than or equal to 30.0) |  |  |  |  |  | 
CCN1C(=O)[C@@H](NC(=O)c2cccc(C(F)(F)F)c2)[C@@H](C2CC2)c2c(C(=O)N3CC[C@@H](NC)[C@@H]3C#N)nn(C3CCOCC3)c21 (relative stereo) [Compound I-421, N-((4S,5S)-3-((2R*,3R*)-2-cyano-3-(methylamino)pyrrolidine-1-carbonyl)-4-cyclopropyl-7-ethyl-6-oxo-1-(tetrahydro-2H-pyran-4-yl)-4,5,6,7-tetrahydro-1H-pyrazolo[3,4-b]pyridin-5-yl)-3-(trifluoromethyl)benzamide] |  | 0.1 to 1 | ≤ 200 | 1000 to 3000 |  |  | 
CCN1C(=O)[C@@H](NC(=O)COc2ccccc2)[C@@H](C2CC2)c2c(C(=O)N3[C@H](C#N)C[C@H]4C[C@H]43)nn(C3CCOCC3)c21 [Compound I-628] |  | 0.1 to 1 | 1000 to 3000 | 1000 to 3000 |  |  | 
CCN1C(=O)[C@H](NC(=O)c2cccc(C(F)(F)F)c2)[C@@H](c2ccc(F)cc2)c2c(CN3C(=O)CC[C@H]3C#N)nn(-c3ccccc3)c21 [Compound I-596, N-((4S,5R)-3-(((S)-2-cyano-5-oxopyrrolidin-1-yl)methyl)-7-ethyl-4-(4-fluorophenyl)-6-oxo-1-phenyl-4,5,6,7-tetrahydro-1H-pyrazolo[3,4-b]pyridin-5-yl)-3-(trifluoromethyl)benzamide] |  | > 1 | 1000 to 3000 | 1000 to 3000 |  |  | 
CCN1C(=O)[C@H](NC(=O)c2cccc(C(F)(F)F)c2)[C@H](c2ccc(F)cc2)c2c(C(=O)N3CCOC[C@H]3C#N)nn(-c3ccccc3)c21 [Compound I-540] |  | > 1 | 1000 to 3000 | 1000 to 3000 |  |  | 
CCN1C(=O)[C@@H](NC(=O)c2cccc(C(F)(F)F)c2)[C@@H](c2ccc(F)cc2)c2c([C@@H](CCO)NC#N)nn(-c3ccccc3)c21 (mixture of isomers) [Compound I-567, N-(rac-(4S,5S)-3-((R)-1-cyanamido-3-hydroxypropyl)-7-ethyl-4-(4-fluorophenyl)-6-oxo-1-phenyl-4,5,6,7-tetrahydro-1H-pyrazolo[3,4-b]pyridin-5-yl)-3-(trifluoromethyl)benzamide] |  | > 1 | 1000 to 3000 | 1000 to 3000 |  |  | 
CCN1C(=O)[C@@H](NC(=O)c2cccc(C(F)(F)F)c2)[C@@H](c2ccc(F)cc2)c2c(C(=O)N3[C@H](C#N)C[C@H]4C[C@H]43)nn([C@@H]3CCOC3)c21 (single isomer, unassigned) [Compound I-482] |  |  | ≤ 200 |  | ≤ 0.1 | ≤ 200 | 
CCN1C(=O)[C@@](CO)(NC(=O)c2cccc(C(F)(F)F)c2)[C@@H](c2ccc(F)cc2)c2c([C@@H](C)NC#N)nn(-c3ccccc3)c21 [Compound I-608] |  | > 1 | ≤ 200 | 1000 to 3000 |  |  | 
CCN1C(=O)[C@@H](NC(=O)c2cccc(C(F)(F)F)c2)[C@@H](c2ccc(F)cc2)c2c([C@@H](C)N(C#N)C(=O)OCCN3CCN(C)CC3)nn(-c3ccccc3)c21 [Compound I-536] |  | 0.1 to 1 | ≤ 200 |  |  | ≤ 200 | 
CCN1C(=O)[C@@H](NC(=O)N2CCC[C@H](C(F)(F)F)C2)[C@@H](c2ccc(F)cc2)c2c(C(=O)N3CCC[C@H]3C#N)nn(-c3ccccc3)c21 (single isomer, unassigned) [Compound I-501] |  | > 1 | 200 to 1000 | 1000 to 3000 |  |  | 
CCN1C(=O)[C@@H](NC(=O)c2cccc(C(F)(F)F)c2)[C@@H](C2CCC2)c2c(C(=O)N3[C@H](C#N)C[C@H]4C[C@H]43)nn(C3CCOCC3)c21 [Compound I-593] |  | ≤ 0.1 | ≤ 200 |  |  | ≤ 200 | 
CCN1C(=O)[C@@H](NC(=O)c2cccc(C(F)(F)F)c2)[C@@H](C2CC2)c2c(C(=O)N3[C@@H](C#N)C[C@@H]4C[C@@H]43)nn(C3CCOCC3)c21 [Compound I-703, N-((4S,5S)-3-((1S,3R,5S)-3-cyano-2-azabicyclo[3.1.0]hexane-2-carbonyl)-4-cyclopropyl-7-ethyl-6-oxo-1-(tetrahydro-2H-pyran-4-yl)-4,5,6,7-tetrahydro-1H-pyrazolo[3,4-b]pyridin-5-yl)-3-(trifluoromethyl)benzamide] |  | > 1 | 1000 to 3000 | 1000 to 3000 |  |  | 
CCN1C(=O)[C@@H](NC(=O)c2cccc3[nH]ncc23)[C@@H](C2CC2)c2c(C(=O)N3[C@H](C#N)C[C@H]4C[C@H]43)nn(C3CCOCC3)c21 [Compound I-602] |  | > 1 | 1000 to 3000 | 1000 to 3000 |  |  | 
CCN1C(=O)[C@@H](NC(=O)c2cccc(C(F)(F)F)c2)[C@@H](c2ccc(F)cc2)c2c(C(=O)N(CC#N)CCN(C)C)nn(-c3ccccc3)c21 (racemic) [Compound I-448] |  | > 1 | ≤ 200 |  |  | ≤ 200 | 
CCN1C(=O)[C@@H](NC(=O)c2cccc(C(F)(F)F)c2)[C@@H](c2ccc(F)cc2)c2c(C(=O)N(C)[C@@H](C#N)CCN(C)C3COC3)nn(C3CCOCC3)c21 [Compound I-654] |  | ≤ 0.1 | ≤ 200 |  |  | ≤ 200 | 
CCN1C(=O)[C@@H](NC(=O)c2ccc3ncsc3c2)[C@@H](C2CC2)c2c(C(=O)N3[C@H](C#N)C[C@H]4C[C@H]43)nn(C3CCOCC3)c21 [Compound I-669] |  | 0.1 to 1 | 200 to 1000 | 1000 to 3000 |  |  | 
CCN1C(=O)[C@@H](NC(=O)c2cccc(C(F)(F)F)c2F)[C@@H](C2CC2)c2c(C(=O)N3[C@H](C#N)C[C@H]4C[C@H]43)nn(C3CCOCC3)c21 [Compound I-514] |  |  | ≤ 200 |  |  | ≤ 200 | ≤ 0.1
CCN1C(=O)[C@@H](NC(=O)c2ccc3cn[nH]c3c2)[C@@H](C2CC2)c2c(C(=O)N3[C@H](C#N)C[C@H]4C[C@H]43)nn(C3CCOCC3)c21 [Compound I-563] |  | > 1 | 1000 to 3000 | 1000 to 3000 |  |  | 
CCN1C(=O)[C@@H](NC(=O)c2cccc(C(F)(F)F)c2)[C@@H](c2ccc(F)cc2)c2c(CCN(C#N)CCO)nn(-c3ccccc3)c21 [Compound I-538] |  | 0.1 to 1 | ≤ 200 | 200 to 1000 |  |  | 
CCN1C(=O)[C@H](NC(=O)c2cccc(C(F)(F)F)c2)[C@H](c2ccc(F)cc2)c2c(C(=O)N3CCC[C@H]3C#N)nn(-c3cccc(OCCN4CCN(C5COC5)CC4)c3)c21 [Compound I-648] |  | > 1 | 1000 to 3000 | 1000 to 3000 |  |  | 
CCN1C(=O)[C@@H](NC(=O)c2cccc(C(F)(F)F)c2)[C@@H](c2ccc(F)cc2)c2c(CN(C)C/C=C/C(=O)N3CCCC3)nn(-c3ccccc3)c21 [Compound I-606] |  | > 1 | 200 to 1000 | 200 to 1000 |  |  | 
CCN1C(=O)[C@@H](NC(=O)c2nccc(C(F)(F)F)n2)[C@H](c2ccc(F)cc2)c2c(CNC(=O)/C=C/C(=O)N3CCCC3)nn(-c3ccccc3)c21 [Compound I-495] |  | > 1 | 200 to 1000 | 200 to 1000 |  |  | 
CCN1C(=O)[C@H](NC(=O)c2cccc(C(F)(F)F)c2)[C@H](C)c2c(C(=O)N3[C@H](C#N)C[C@H]4C[C@H]43)nn(C3CCOCC3)c21 [Compound I-599] |  | 0.1 to 1 | 1000 to 3000 | 1000 to 3000 |  |  | 
CCN1C(=O)[C@@H](NC(=O)c2cccc(C(F)(F)F)c2)[C@@H](C2CC2)c2c(C(=O)N3CCS(=O)(=O)C[C@H]3C#N)nn(-c3ccccc3)c21 [Compound I-659, N-((4S,5S)-3-((R)-3-cyano-1,1-dioxidothiomorpholine-4-carbonyl)-4-cyclopropyl-7-ethyl-6-oxo-1-phenyl-4,5,6,7-tetrahydro-1H-pyrazolo[3,4-b]pyridin-5-yl)-3-(trifluoromethyl)benzamide] |  | ≤ 0.1 | ≤ 200 |  |  | ≤ 200 | 
CCN1C(=O)[C@@H](NC(=O)[C@H]2C[C@@H]3CCCC[C@@H]3N2)[C@@H](C2CC2)c2c(C(=O)N3[C@H](C#N)C[C@H]4C[C@H]43)nn(C3CCOCC3)c21 [Compound I-566] |  | > 1 | 1000 to 3000 | 1000 to 3000 |  |  | 
